{"source": "patent US20230263822A1", "about": "“MODULATION OF FACTOR 11 EXPRESSION” (Ionis Pharmaceuticals, Inc., priority 2008, published 2023)", "tested_on": "human Factor 11 mRNA", "assay": "Dose-dependent inhibition of human Factor 11 in HepG2 cells, electroporation 123.46-10,000 nM (Example 31)", "format": "cell-based", "details": "for Percent inhibition of Factor 11 mRNA at 123.47 nM / Percent inhibition of Factor 11 mRNA at 370.37 nM / IC50: electroporation; for Percent inhibition of Factor 11 mRNA at 123.47 nM / Percent inhibition of Factor 11 mRNA at 370.37 nM / Percent inhibition of Factor 11 mRNA at 1,111.11 nM / Percent inhibition of Factor 11 mRNA at 3,333.33 nM / Percent inhibition of Factor 11 mRNA at 10,000.0 nM: approx. 16 hours, relative to untreated control cells; for Percent inhibition of Factor 11 mRNA at 1,111.11 nM: electroporation, 1,111.11 nM; for Percent inhibition of Factor 11 mRNA at 3,333.33 nM: electroporation, 3,333.33 nM; for Percent inhibition of Factor 11 mRNA at 10,000.0 nM: electroporation, 10,000.0 nM; for IC50: Factor 11 mRNA expression", "procedure,_shortened": "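HepG2 cells were electroporated with antisense oligonucleotide at 123.46, 370.37, 1,111.11, 3,333.33 and 10,000 nM and harvested about 16 hours later. Factor 11 mRNA was quantified by qRT-PCR and normalised to total RNA (RIBOGREEN). Inhibition is expressed relative to untreated cells.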", "note": "Strand notation (5' to 3'): a small letter for the sugar, then the base; units joined by * are phosphorothioate-linked, units joined directly phosphodiester-linked; [ ] holds rarer units or linkages, { } end groups; capitals alone tell only the bases. e = 2'-O-(2-methoxyethyl) (MOE); [5mC] = 5-methylcytosine; d = 2'-deoxy (DNA)", "data": [{"substance": "416850 (antisense TGCACAGTTTCTGGCAGGCC; 5-10-5 gapmer, further chemistry not given here) [compound 416850]", "values": [{"measurement": "Percent inhibition of Factor 11 mRNA at 123.47 nM", "value": 0, "unit": "%"}, {"measurement": "Percent inhibition of Factor 11 mRNA at 370.37 nM", "value": 12, "unit": "%"}, {"measurement": "Percent inhibition of Factor 11 mRNA at 1,111.11 nM", "value": 36, "unit": "%"}, {"measurement": "Percent inhibition of Factor 11 mRNA at 3,333.33 nM", "value": 74, "unit": "%"}, {"measurement": "Percent inhibition of Factor 11 mRNA at 10,000.0 nM", "value": 73, "unit": "%"}, {"measurement": "IC50", "value": 2800, "unit": "nM"}]}, {"substance": "416856 (antisense GGCATTGGTGCACAGTTTCT; 5-10-5 gapmer, further chemistry not given here) [compound 416856]", "values": [{"measurement": "Percent inhibition of Factor 11 mRNA at 123.47 nM", "value": 12, "unit": "%"}, {"measurement": "Percent inhibition of Factor 11 mRNA at 370.37 nM", "value": 23, "unit": "%"}, {"measurement": "Percent inhibition of Factor 11 mRNA at 1,111.11 nM", "value": 35, "unit": "%"}, {"measurement": "Percent inhibition of Factor 11 mRNA at 3,333.33 nM", "value": 59, "unit": "%"}, {"measurement": "Percent inhibition of Factor 11 mRNA at 10,000.0 nM", "value": 83, "unit": "%"}, {"measurement": "IC50", "value": 1600, "unit": "nM"}]}, {"substance": "416858 (antisense ACGGCATTGGTGCACAGTTT; 5-10-5 gapmer, further chemistry not given here) [compound 416858]", "values": [{"measurement": "Percent inhibition of Factor 11 mRNA at 123.47 nM", "value": 0, "unit": "%"}, {"measurement": "Percent inhibition of Factor 11 mRNA at 370.37 nM", "value": 27, "unit": "%"}, {"measurement": "Percent inhibition of Factor 11 mRNA at 1,111.11 nM", "value": 36, "unit": "%"}, {"measurement": "Percent inhibition of Factor 11 mRNA at 3,333.33 nM", "value": 64, "unit": "%"}, {"measurement": "Percent inhibition of Factor 11 mRNA at 10,000.0 nM", "value": 70, "unit": "%"}, {"measurement": "IC50", "value": 2200, "unit": "nM"}]}, {"substance": "445522 (antisense eG*e[5mC]*eA*e[5mC]*eA*dG*dT*dT*dT*d[5mC]*dT*dG*dG*e[5mC]*eA*eG*eG*e[5mC]) [compound 445522]", "values": [{"measurement": "Percent inhibition of Factor 11 mRNA at 123.47 nM", "value": 0, "unit": "%"}, {"measurement": "Percent inhibition of Factor 11 mRNA at 370.37 nM", "value": 0, "unit": "%"}, {"measurement": "Percent inhibition of Factor 11 mRNA at 1,111.11 nM", "value": 44, "unit": "%"}, {"measurement": "Percent inhibition of Factor 11 mRNA at 3,333.33 nM", "value": 63, "unit": "%"}, {"measurement": "Percent inhibition of Factor 11 mRNA at 10,000.0 nM", "value": 74, "unit": "%"}, {"measurement": "IC50", "value": 2900, "unit": "nM"}]}, {"substance": "445531 (antisense eG*eG*e[5mC]*eA*eT*dT*dG*dG*dT*dG*d[5mC]*dA*d[5mC]*eA*eG*eT*eT*eT) [compound 445531]", "values": [{"measurement": "Percent inhibition of Factor 11 mRNA at 123.47 nM", "value": 8, "unit": "%"}, {"measurement": "Percent inhibition of Factor 11 mRNA at 370.37 nM", "value": 16, "unit": "%"}, {"measurement": "Percent inhibition of Factor 11 mRNA at 1,111.11 nM", "value": 52, "unit": "%"}, {"measurement": "Percent inhibition of Factor 11 mRNA at 3,333.33 nM", "value": 61, "unit": "%"}, {"measurement": "Percent inhibition of Factor 11 mRNA at 10,000.0 nM", "value": 77, "unit": "%"}, {"measurement": "IC50", "value": 1800, "unit": "nM"}]}]}
